Assay results as given in US20160331717A1, “CABAZITAXEL AND ITS USE FOR TREATING CANCER” (AVENTIS PHARMA S.A., priority 2015, published 2016).
Read-outs that look alike come from different tables or passages of the source.

Columns and labels:
[1] = Pharmacokinetics of cabazitaxel in POP6792 (plasma, LC-MS/MS, Cycle 1); format: in vivo, human
Experimental: Total cabazitaxel concentrations in plasma were determined using a validated liquid chromatography with tandem mass spectrometry method (LC-MS/MS) with a lower limit of quantification (LLOQ) of 1 ng/mL.

[2] = test system: advanced solid tumor patients with varying degrees of hepatic impairment; conditions: for maximum tolerated dose (MTD): 1-hour IV infusion every 3 weeks; for death related to study drug: one patient
Experimental: • The primary endpoint was the occurrence of DLTs during Cycle 1. • The secondary endpoints were: • Treatment-emergent adverse events (TEAEs); • Laboratory abnormalities; and, • Pharmacokinetic parameters (Cmax, Ceoi, tmax, tlast, AUClast, AUCO-24, AUCO-72, t1/2z, AUC, CL and Vss). • The effect of the degree of hepatic impairment on cabazitaxel PK parameters was evaluated according to a linear mixed effects model (Log [parameter]=Cohort+Error) with a fixed term for Cohort, fit by estimated generalized least squares (GLS) using SAS PROC MIXED. Estimate and 90% confidence interval (CI) for the geometric mean ratio of each cohort versus Cohort 1 and of Cohorts 3 and 4 versus Cohort 2 were provided for CL, CL/BSA, and exposure parameters (Cmax, AUC, AUClast, AUCO-24 and AUCO-72) normalized to actual cabazitaxel dose in mg/m^2.
• The study was designed as an open-label, dose-escalation, multi-center study of cabazitaxel administered as a 1-hour intravenous (IV) infusion every 3 weeks in cancer patients with varying degrees of hepatic impairment. Patients were enrolled in 4 cohorts based on hepatic function at baseline graded by total bilirubin and aspartate aminotransferase (AST): • Cohort 1: normal hepatic function (total bilirubin supper limit of normal [ULN]; aspartate aminotransferase [AST]≦ULN), • Cohort 2: mild hepatic impairment (total bilirubin >1 to ≦1.5×ULN or AST>1.5×ULN), • Cohort 3: moderate hepatic impairment (total bilirubin >1.5× to ≦3.0×ULN; AST=any), • Cohort 4: severe hepatic impairment (total bilirubin >3.0×-10×ULN; AST=any). • All liver function tests must be completed within 48 hours prior to start of treatment, and reviewed by the investigator or their designee before treatment administration.
Cabazitaxel is administered on Day 1 of each 3-week cycle. Patients received cabazitaxel administered by IV infusion over 1 hour at the dose specified for each cohort. The actual amount of cabazitaxel administered was adjusted at each cycle based on body surface area (BSA) to a maximum BSA of 2.1 m^2 (i.e., patients with a BSA over 2.1 m2 will receive the same amount of cabazitaxel as those with a BSA of 2.1 m).
For Cohorts 2, 3 and 4, dose-escalation was based on dose-limiting toxicities (DLTs) during Cycle 1; real time PK information was used along with safety information. The maximum administered dose (MAD) was to be reached at the dose level when at least 2 patients develop a DLT during Cycle 1. The MTD was defined as the highest dose at which no more than 0 of the first 3 patients, or 1 of 6 patients, experience a DLT during Cycle 1, to a maximum dose of 25 mg/m2. The MTD was one dose level below the MAD.
To be considered a DLT, the clinical adverse event (AE) or laboratory abnormality should be drug-related as assessed by the investigator.
Liver DLTs in patients with hepatic dysfunction (Cohorts 2, 3 and 4) were defined as an increase in total and direct bilirubin and/or transaminase levels to 3 times the baseline value.

[3] = POH0124; CV=38.8%, n=170; cited from earlier work
[4] = Cohort 2, mild hepatic impairment
[5] = Cohort 3 at the MTD, 4/7 patients

SMILES: CO[C@H]1C(=O)[C@]2(C)[C@@H](OC)C[C@H]3OC[C@@]3(OC(C)=O)[C@H]2[C@H](OC(=O)c2ccccc2)[C@]2(O)C[C@H](OC(=O)[C@H](O)[C@@H](NC(=O)OC(C)(C)C)c3ccccc3)C(C)=C1C2(C)C [cabazitaxel, 4α-acetoxy-2α-benzoyloxy-5β,20-epoxy-1-hydroxy-7, 101-dimethoxy-9-oxo-11-taxen-13α-yl (2R,3S)-3-tert-butoxycarbonyl-amino-2-hydroxy-3-phenylpropionate]
- CL/BSA estimate ([1]; Cohort 1, normal hepatic function, 90% CI: 8.6-20.8): 13.4 L/h/m2
- CL/BSA estimate ([1]; Cohort 2, mild hepatic impairment, 90% CI: 17.6-31.4): 23.5 L/h/m2
- CL/BSA geometric mean ratio ([1]; Cohort 2 versus Cohort 1, 75% increase, 90% CI: 1.04-2.96): 1.75
- mean CL/BSA ([1]; Cohort 3/10 mg/m^2 (aberrant PK behavior, excluded from statistical analysis)): 517 L/h/m2
- CL/BSA geometric mean ratio, sensitivity analysis ([1]; Cohort 3 versus Cohort 2, after exclusion of patients with erratic PK profile, 6% decrease, 90% CI: 0.64-1.38): 0.94
- AUClast/dose geometric mean ratio ([1]; Cohort 3 versus Cohort 2, 14% decrease, 90% CI: 0.50-1.46): 0.86
- CL/BSA geometric mean ratio ([1]; Cohort 3 versus Cohort 2, 19% increase, 90% CI: 0.74-1.91): 1.19
- CL/BSA geometric mean ratio, sensitivity analysis ([1]; Cohort 4 versus Cohort 2, after exclusion of patients with erratic PK profile, 39% decrease, 90% CI: 0.36-1.05): 0.61
- AUClast/dose geometric mean ratio ([1]; Cohort 4 versus Cohort 2, 17% increase, 90% CI: 0.63-2.14): 1.17
- CL/BSA geometric mean ratio ([1]; Cohort 4 versus Cohort 2, 23% decrease, 90% CI: 0.39-1.53): 0.77
- mean CL/BSA, Cohort 3/10 mg/m^2 versus other Cohort 3 patients ([1]; higher): approximately 20 fold
- effect of hepatic impairment on cabazitaxel clearance ([1]; mild or moderate hepatic impairment): no evidence that mild or moderate hepatic impairment results in a substantial decline in cabazitaxel clearance
- CL/BSA estimate ([1]; moderate hepatic impairment): 27.9 L/h/m2
- mean CL/BSA ([1]; other Cohort 3 patients, 15 and 20 mg/m2): 30.5 L/h/m2
- CL/BSA estimate ([1]; severe hepatic impairment): 18.1 L/h/m2
- maximum administered dose (MAD) [2, 4]: 25 mg/m2
- maximum tolerated dose (MTD) [2, 4]: 20 mg/m^2
- death related to study drug ([2]; Cohort 2/20 mg/m^2): died due to Gr 4 Candida sepsis related to study drug
- maximum tolerated dose (MTD) ([2]; Cohort 3, moderate hepatic impairment): 15 mg/m^2
- study drug-related febrile neutropenia, patients ([2]; Cohort 3 at the MTD, 1/7 patients): 14.3%
- study drug-related TEAE diarrhea, patients ([2]; Cohort 3 at the MTD, 3/7 patients): 42.9%
- Gr≧3 on-treatment neutrophil count decreased, patients [2, 5]: 57.1%
- Gr≧3 on-treatment white blood cell count decreased, patients [2, 5]: 57.1%
- death related to study drug ([2]; Cohort 4/20 mg/m^2): died due to a combination of shock, acute renal failure, tumor lysis syndrome (all related to study drug)
- death due to disease progression, patients ([2]; all cohorts, 21/43 patients): 48.8%
- patients who died by the cut-off date ([2]; all cohorts, 23 of 43 patients): 53.5%
- study drug-related TEAE diarrhea, patients ([2]; human, in vivo): 41.7%
- study drug-related TEAE fatigue, patients ([2]; human, in vivo): 83.3%
- study drug-related serious TEAE febrile neutropenia, patients ([2]; human, in vivo): 25.0%
- study drug-related serious TEAE neutropenia (Gr≧3), patients ([2]; human, in vivo): 33.3%
- maximum administered dose (MAD) ([2]; human, in vivo, 3 weeks): 20 mg/m2
- febrile neutropenia ([2]; in vivo): No patient experienced febrile neutropenia
- safety profile at the MTD ([2]; patients with mild or moderate hepatic impairment): generally similar to that observed at 25 mg/m^2 in patients with normal hepatic function
- typical cabazitaxel clearance (CL/BSA) by population PK analysis [3]: 26.4 L/h/m2
